Test results published in patent US20240285594A1, “COMPOSITIONS AND METHODS FOR TREATING PAIN IN ANIMALS” (North Carolina State University, priority 2023, published 2024).
“And” between values parts separate entries of the source, which are not always exact repeats. Equal values may be shown once. “Also recorded” adds a separate entry of the source. Read-outs that look alike come from different tables or passages of the source.

Tests used:
cortisol = assay: Serum cortisol after surgical or sham castration of piglets (Part I, physiological assessment); type: in vivo
Experimental: A total of 197 Large White×Duroc cross male piglets from 35 litters were enrolled in the study (Table 1). Piglets were individually identified using ear tags (Allflex Global Piglet ear tags, Allflex Livestock Intelligence, Madison, WI), weighed and randomly allocated to one of eight treatment groups (FIG. 1).
Lidocaine was buffered by mixing 2 ml of 8.4% Sodium Bicarbonate to 20 ml of 2% lidocaine HCl injectable solution to achieve a pH of 6.8 (Lidocaine Hydrochloride, Covetrus, Dublin, Ohio, US). […] Piglets were held by both rear legs by one caretaker with the abdomen facing the individual administrating treatment. Buffered lidocaine was injected intra-inguinally (Picture 1) by a second caretaker using a ½ inch needle (Ideal® D3 20 Gauge, Neogen, Lansing, MI) inserted into a syringe (Prima Tech® 2 cc Bottle Mount Vaccinator, Prima Tech USA, Kenansville, NC). A total of 1.5 ml of buffered lidocaine per injection site was administered intramuscularly (IM) into each inguinal canal (left and right) at a 40-degree angle 5-7 cm from the scrotum and 2-3 cm from the abdominal wall. Piglets enrolled in the control treatment (C, S, CF, SF−T1: (C) Castration plus physiological saline (IM and IN; n=25); T2: (S) Sham plus physiological saline (IM and IN; n=25); T5: (CF) Castration plus flunixin (IN; n=25); T6: (SF) Sham plus flunixin (IN; n=24)) were handled in an identical manner and 1.5 ml of sterile saline was injected in the same two locations as described previously.
Immediately following intra-inguinal injection, piglets enrolled in the FM treatment groups were held in sternal recumbency by one individual and 2.2 mg/kg (Banamine®, Merck Animal Health, Madison, NJ, US) was administered in one nostril using was a MAD® nasal intranasal mucosal atomization device (Telefex Incorporated, Wayne, PA, US) attached to a Prima Tech® 0.5 cc bottle mount vaccinator. The same individual administered the treatment by gently holding the piglet's snout using their non-dominant hand to steady the head and administered the drug with the other hand. Piglets in the control group were handled in the same manner in an equivalent volume of 0.2 ml of sterile saline was administered as described above.
Castration was performed by one trained caretaker from the farm. Piglets were picked up, individually held by both hind legs with head down, and two vertical incisions were made through the skin of the scrotum over each testicle using a scalpel blade. Once the incisions were made, testicles were exposed, spermatic cords cut, and testicles were completely removed by traction. A sham castration was performed to mimic similar handling conditions in which piglets were picked up, held in the same manner, and had pressure applied to the scrotal area by the same individual responsible for castration.
Blood was collected 24 h prior to (−24 h), 1 h (1 h), and 24 h post castration (24 h, FIG. 2). Blood samples were collected using the technique described in other studies. The orbital sinus cavity was punctured using an Excel® disposable hypodermic needle 20G (Exel International, Quebec, Canada) and deposited into a 4 ml BD® red vacutainer serum tube (Med Vet International, Mettawa, IL). All tubes were maintained in a cooler and centrifuged (2,000×g for 15 min at 4° C.) no more than eight hours post-collection to separate serum. […]
Serum cortisol concentrations were quantified using a commercially available EIA kit (Arbor Assays DetectX Cortisol EIA Kit, Product #K003). […]

prostaglandin E2 (PGE2) = assay: Serum PGE2 after castration of piglets (Example 3); type: in vivo
Experimental: Pairwise comparisons of treatments at −24 h: P≥0.77. […] Pairwise comparisons of treatments at 24 h post-castration: P≥0.11.
The objective of this study was to evaluate the effects of intranasal flunixin and intra-inguinal lidocaine application on the castration associated inflammatory response in piglets, as described in Example 1.

[1] = Plasma and interstitial fluid concentrations after intravenous or intranasal flunixin meglumine in cattle; type: in vivo
Experimental: FIG. 10: Plasma concentration versus time curve for individual cattle (n=4) following a single intravenous dose of flunixin meglumine at 2.2 mg/kg. Samples were simultaneously collected from the opposite jugular vein (via pre-placed catheter) and a pre-placed portal vein catheter. Some variability is observed between sampling sites (jugular vs. portal vein) but overall concentrations and trend are similar over time.
FIG. 11: Plasma concentration versus time curve for individual cattle (n=4) following a single intranasal dose of flunixin meglumine at 2.2 mg/kg. Samples were simultaneously collected from a jugular vein catheter and a pre-placed portal vein catheter. Overall, plasma concentrations are lower following intranasal administration, and the jugular sampling site overestimates systemic concentrations especially following the first 1 hour after administration.
FIG. 12: Interstitial fluid concentration versus time curve for individual cattle (n=4) following a single intranasal (n=2) or intravenous (n=2) dose of flunixin meglumine at 2.2 mg/kg. Samples were collected using an in vivo ultrafiltration collection device and represent tissue unbound concentrations of flunixin. There is systemic absorption following both intravenous and intranasal routes of administration, with tissue concentrations of flunixin detected for at least 24 hours following a single dose.

[2] = female, Yorkshire cross, pig, in vivo, 2.2 mg/kg
Experimental: (§1) Six female Yorkshire cross grower pigs approximately 8 weeks of age with no history of flunixin administration in a 30-day period were sourced from a production farm and enrolled in the study. The pigs were determined to be healthy by veterinary physical examination and pigs initially weighed between 18.0-22.0 kg. The pigs were individually housed in climate-controlled rooms with a 12:12 light dark cycle at the North Carolina State University College of Veterinary Medicine to prevent cross contamination between pigs and damage to jugular catheters. The pens had non-slip flooring, allowed the pigs to move freely, provided enrichment, and were cleaned at least twice daily. The pigs had ad libitum access to water via a nipple drinker and were fed 0.5 quarts of Nature's Match twice daily. […] From the time of arrival until the end of the study, the pigs were monitored at least twice daily for general appearance, attitude, appetite, and wellbeing.
(§2) To facilitate jugular catheter placement, the pigs were sedated with Telazol®, reconstituted with ketamine and xylazine as previously described, intubated, and maintained on gas isoflurane anesthesia. A 22-gauge, 10 cm intravenous catheter (MILA, International, Inc., Florence, KY, USA) was placed into the jugular vein using sterile technique. It was sutured in place with 3-0 nylon and covered in Ioban™ (3M, St. Paul, MN, USA) to prevent damage. The pigs wore custom jackets throughout the study to protect the catheters and an extension set was attached to allow for easy catheter access and restraint-free blood collection.
(§3) All pigs were randomized to determine the first administration route. Group 1 (n=3 pigs) and Group 2 (n=3 pigs) were used in a cross-over design and received 2.2 mg/kg flunixin (Banamine®-S, Merck Animal Health, Madison, NJ, USA) by either the IM or IN route. Following a 5-day washout period, the pigs were administered 2.2 mg/kg flunixin via the opposite route. IN administration was completed using a MAD600 MADgic laryngo-tracheal mucosal atomization device (Teleflex Medical, Morrisville, NC, USA). The luer lock syringe was attached to this device and drug was placed into the nostril. Before administration, 0.22 mL of the drug was added to the device to account for dead space volume. After the IN dose, pigs were encouraged to keep their heads raised for approximately 10 seconds to prevent leakage of the drug out of the nasal cavity. Intramuscular administration was performed in the omotransversarius muscle using a 20G needle.
(§4) Blood samples were collected at 0 (pre-treatment), 0.16, 0.33, 0.5, 0.75, 1, 1.5, 2, 3, 4, 6, 8, 12, 18, 24, 36, 48, and 60 hours post treatment. To avoid heparin contamination in samples, at least 1 mL of blood was collected as a purge sample before 1-2 mL of blood was collected and placed into lithium heparin tubes (BD Vacutainer, Franklin Lakes, NJ, USA). The purge blood was injected back into the catheter before the catheter was flushed with 3-4 mL of heparinized saline to prevent coagulation. The blood tubes were placed on ice for no more than 1 hour before they were processed. Plasma was separated by centrifugation at 3500×g for 10 minutes at 4° C., equally split between two cryovials, mixed, and stored at −80° C. until analysis.
(§5) To prepare samples, 100 μL of plasma was pipetted into a clean borosilicate glass tube (disposable culture tubes, CWR). To pretreat the plasma, 500 μL of 4% phosphoric acid prepared in water was added to each tube. Solid phase extraction was performed on an oasis prime HLB 96 well μElution plate (Waters Corporation, Milford, MA, USA). The plate was prepared by conditioning the plate with 500 μL of methanol followed by 500 μL of ultrapure water.

[3] = cited from earlier work
[4] = IM flunixin in pigs; cited from earlier work
[5] = IM flunixin 2.2 mg/kg compared to ketoprofen 3 mg/kg and meloxicam 0.4 mg/kg; swine; cited from earlier work
[6] = Cross-over plasma pharmacokinetics of intranasal versus intramuscular flunixin;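 note: grower pigs about 8 weeks old weighing 18.0-22.0 kg, randomized cross-over of both routes separated by a 5-day washout, blood taken via jugular vein catheter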
Experimental: as §1, §2, §3, §4, §5

[7] = IV administration 2.2 mg/kg, piglets, Kittrell et al. (2020)
[8] = PO administration 3.3 mg/kg, piglets, Kittrell et al. (2020)
[9] = TD administration 3.3 mg/kg, piglets, Kittrell et al. (2020)
[10] = intramuscular 2.2 mg/kg, six grower pigs, plasma, median
[11] = intranasal 2.2 mg/kg, six grower pigs, plasma, median

**Q.** For `Cc1c(Nc2ncccc2C(=O)O)cccc1C(F)(F)F` [flunixin meglumine], which cortisol concentrations (cortisol; 1 h, sham castrated piglets (SF and SLF)) is on record?
**A.** lowest cortisol concentrations

**Q.** And the cortisol concentrations (cortisol; 1 h post-castration, castrated piglets, compared to C (saline) and CL, FM 2.2 mg/kg intranasal, buffered lidocaine intra-inguinal, listed as FM)?
**A.** lower cortisol concentrations; also recorded: decreased cortisol concentrations; also recorded: effectively reduce

**Q.** And the cortisol concentrations (cortisol; 24 h post-castration, between treatments)?
**A.** not effective

**Q.** And the “serum PGE2 concentrations” value (prostaglandin E2 (PGE2); 1 h post-castration, castrated and non-castrated piglets, flunixin 2.2 mg/kg IN vs piglets without the drug)?
**A.** lower serum PGE2 concentrations; also recorded: effective

**Q.** And the “serum PGE2 concentrations” value (prostaglandin E2 (PGE2); 24 h post castration, vs other treatments)?
**A.** no observed differences; also recorded: not effective

**Q.** And the plasma concentrations ([1]; cattle (n=4), single intranasal dose 2.2 mg/kg, compared with intravenous)?
**A.** lower

**Q.** What about the “time tissue (interstitial fluid, unbound) concentrations were detected” value ([1]; cattle, single intranasal or intravenous dose 2.2 mg/kg) of the same compound?
**A.** at least 24 hours

**Q.** And the “time flunixin was detectable in plasma post-administration” value [2]?
**A.** up to 60 hours

**Q.** What about the half-life [3, 7] of the same compound?
**A.** 7.06 h

**Q.** What about the “maximum observed drug concentration” value [3, 7] of the same compound?
**A.** 12.03 µg/mL

**Q.** What about the Cmax [3, 8] of the same compound?
**A.** 4990 ng/mL

**Q.** And the Tmax [3, 8]?
**A.** 0.93 h

**Q.** And the half-life [3, 8]?
**A.** 11.38 h

**Q.** What about the Cmax [3, 9] of the same compound?
**A.** 40 ng/mL

**Q.** What about the Tmax [3, 9] of the same compound?
**A.** 22.50 h

**Q.** What about the half-life [3, 9] of the same compound?
**A.** 38.89 h

**Q.** And the bioavailability ([3]; transdermal formulation, pigs)?
**A.** low bioavailability

**Q.** What about the blood concentrations ([3]; transdermal formulation, swine, Kittrell et al. (2020)) of the same compound?
**A.** low blood concentrations

**Q.** And the label withdrawal time [4]?
**A.** 12 days

**Q.** What about the bioavailability [5] of the same compound?
**A.** higher bioavailability

**Q.** And the terminal half-life [5]?
**A.** longer terminal half-life

**Q.** What about the “AUCinf of IM administration” value ([6]; 2.2 mg/kg IM, individual grower pig (Pig # 1-6, one line per pig), unit not given) of the same compound?
**A.** 7.63 and 6.25 and 7.82 and 8.54 and 5.29 and 4.99

**Q.** And the “AUCinf of IN administration” value ([6]; 2.2 mg/kg IN, individual grower pig (Pig # 1-6, one line per pig), unit not given)?
**A.** 2.98 and 8.90 and 7.07 and 4.98 and 4.74

**Q.** What about the “AUC Extrap” value [6, 10] of the same compound?
**A.** 0.3%

**Q.** And the λz [6, 10]?
**A.** 0.1 h⁻¹

**Q.** And the “AUC Extrap” value [6, 11]?
**A.** 0.5%

**Q.** What about the AUCinf [6, 11] of the same compound?
**A.** 4900 ng·h/mL

**Q.** What about the HLλz [6, 11] of the same compound?
**A.** 7.4 h

**Q.** What about the λz [6, 11] of the same compound?
**A.** 0.09 h⁻¹
